PubChem BioAssay AID2060605 (Molecular Pharmacology Branch, DTP, NCI, 2025)

System: 947758-054-R-J2-PDC spheroid growth, percent test/control
Experiment: Anticancer human tumor 947758-054-R-J2-PDC patient-derived colon adenocarcinoma cell line growth inhibition [CLK]
Conditions: spheroids with HUVEC and MSC; for IC50: curve of first compound; for viability, T/C: stronger effect = lower value
Method in brief: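 Multi-cell-type spheroids combined patient-derived tumor cells with HUVEC endothelial cells and human mesenchymal stem cells. Paired agents were dosed in half-log steps down from about clinical Cmax, or from 10 microM where Cmax was unknown.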
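Also: spheroids exposed to compounds for one week before readout.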
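For viability, T/C in this document: 100% = DMSO vehicle control wells.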

Structure (SMILES): CCc1c2c(nc3ccc(O)cc13)-c1cc3c(c(=O)n1C2)COC(=O)[C@]3(O)CC + CN1CCN(c2cc(C(=O)Nc3cc4cc(-c5cnn(C)c5)ccc4cn3)ccn2)CC1
- IC50 (second compound 0.0316 µM): 7.83 nM
- IC50 (second compound 0.1 µM): 3.27 nM
- IC50 (second compound 0.316 µM): < 3.16 nM
- IC50 (second compound 1 µM): < 3.16 nM
- IC50 (second compound 3.16 µM): < 3.16 nM
- IC50 (second compound 10 µM): < 3.16 nM
- viability, T/C (second compound 0.0316 µM, first compound 0.00316 µM): 98.9%
- viability, T/C (second compound 0.0316 µM, first compound 0.01 µM): 32.5%
- viability, T/C (second compound 0.0316 µM, first compound 0.0316 µM): 22.7%
- viability, T/C (second compound 0.0316 µM, first compound 0.1 µM): 16.4%
- viability, T/C (second compound 0.0316 µM, first compound 0.316 µM): 6.6%
- viability, T/C (second compound 0.0316 µM, first compound 1 µM): 3.27%
- viability, T/C (second compound 0.1 µM, first compound 0.00316 µM): 51%
- viability, T/C (second compound 0.1 µM, first compound 0.01 µM): 29.2%
- viability, T/C (second compound 0.1 µM, first compound 0.0316 µM): 19.8%
- viability, T/C (second compound 0.1 µM, first compound 0.1 µM): 9.54%
- viability, T/C (second compound 0.1 µM, first compound 0.316 µM): 3.86%
- viability, T/C (second compound 0.1 µM, first compound 1 µM): 2.52%
- viability, T/C (second compound 0.316 µM, first compound 0.00316 µM): 1.89%
- viability, T/C (second compound 0.316 µM, first compound 0.01 µM): 2.41%
- viability, T/C (second compound 0.316 µM, first compound 0.0316 µM): 1.16%
- viability, T/C (second compound 0.316 µM, first compound 0.1 µM): 1.27%
- viability, T/C (second compound 0.316 µM, first compound 0.316 µM): 0.15%
- viability, T/C (second compound 0.316 µM, first compound 1 µM): 0.45%
- viability, T/C (second compound 1 µM, first compound 0.00316 µM): 0.1%
- viability, T/C (second compound 1 µM, first compound 0.01 µM): 0.11%
- viability, T/C (second compound 1 µM, first compound 0.0316 µM): 0.12%
- viability, T/C (second compound 1 µM, first compound 0.1 µM): 0.09%
- viability, T/C (second compound 1 µM, first compound 0.316 µM): 1.68%
- viability, T/C (second compound 1 µM, first compound 1 µM): 0.14%
- viability, T/C (second compound 3.16 µM, first compound 0.00316 µM): 0.18%
- viability, T/C (second compound 3.16 µM, first compound 0.01 µM): 0.26%
- viability, T/C (second compound 3.16 µM, first compound 0.0316 µM): 0.41%
- viability, T/C (second compound 3.16 µM, first compound 0.1 µM): 0.63%
- viability, T/C (second compound 3.16 µM, first compound 0.316 µM): 0.68%
- viability, T/C (second compound 3.16 µM, first compound 1 µM): 1.64%
- viability, T/C (second compound 10 µM, first compound 0.00316 µM): 0.21%
- viability, T/C (second compound 10 µM, first compound 0.01 µM): 0.3%
- viability, T/C (second compound 10 µM, first compound 0.0316 µM): 0.79%
- viability, T/C (second compound 10 µM, first compound 0.1 µM): 1.24%
- viability, T/C (second compound 10 µM, first compound 0.316 µM): 1.43%
- viability, T/C (second compound 10 µM, first compound 1 µM): 1.35%
